Experimental data taken from patent US5846937A, “Method of using exendin and GLP-1 to affect the central nervous system” (1149336 Ontario Inc., priority 1997, dated 1998).

Columns and labels:
rats = details: ICV administration; cited from earlier work
[1] = test system: Wild-type (+/+), male CD1 mice; test: Line test (locomotor activity) after ICV injection, wild-type mice; format: in vivo; details: wild-type mice fasted overnight; ICV 5 μl; GLP-1 5 μg, Exendin(9-39) amide 10 μg, Exendin-4 amide 15 μg
Method: Male CD1 mice were used for these experiments. Wild-type (+/+), male CD1 mice (approx. 11 weeks old) were obtained from Charles River Canada (Quebec). Mice were acclimatized to the animal facility for several days prior to use in the actual experiments.
(§1) All mice were faster overnight 16 hours prior to the start of the experiment. Mice were lightly anesthetized by placing them in a covered beaker with 800 μl of Methoxyflurane (Metofane, Jannsen Pharmaceuticals) for approximately 3 minutes. Peptides were delivered into the ventricles by ICV injection using a 2.5 mm×30 gauge needle attached to a Hamilton syringe. All test peptides were dissolved in phosphate buffered saline. Mice were given 5 μl ICV injections of the test peptides or saline, following which they were observed closely for 3 hours.
(§2) Following ICV administration of GLP-1 [5 μg/5 μl; Glucagon-like Peptide 1 (7-36) amide, human, lot # AM680, Bachem California, Torrence, Calif.], Exendin(9-39) amide (10 μg/5 μl; lot # ZN136, Bachem California, Torrence, Calif.), Exendin-4 amide (15 μg/5 μl; kit # 506189, Bachem California, Torrence, Calif.), or PBS, mice were placed into individual cages for the period of observation.
(§3) To record food intake, mice were given a pre-weighed (approx. 3 g) amount of rodent chow when all members of a test group appeared fully alert, generally about 20-30 minutes after ICV injection.
(§4) Approximately 15-20 min. after the mice had begun to eat, or no longer than 30 min. following the addition of the pre-weighed rodent chow to the cages, the parameter of arousal/sedation was assessed, namely mice were assessed for locomotor activity by measuring the number of times each animal crossed over a line that was placed in the center of the cage (line test).
(§5) The Locomotor activity was assessed for 3×30 min consecutive periods. The data for the first 30 minutes observation period is shown in the accompanying FIG. 1.

[2] = test system: GLP-1R^(-/-) knockout mice; test: Line test (locomotor activity) after ICV injection, GLP-1R knockout mice; format: in vivo; details: GLP-1R knockout mice fasted overnight; ICV 5 μl; GLP-1 5 μg, Exendin(9-39) amide 10 μg, Exendin-4 amide 15 μg
Method: GLP-1R^(-/-) knockout age-matched male mice, produced as described above in example 1, were bred in the Toronto Hospital animal facility. All mice were fed a diet of ad libitum access to standard laboratory rat chow and tap water.
as §1, with “saline.” for “saline. Mice were given 5 μl ICV injections of the test peptides or saline, following which they were observed closely for 3 hours.”
as §2, §3, §4, §5

normal wildtype mice = test: Dose response experiment, line test after ICV injection, non-fasted mice; format: in vivo; details: for mean number of line crossings: not fasted, saline control 66.8
Method: A dose response experiment was performed to compare the specific activities of exendin and GLP-1 peptides. Additionally, this experiment was designed to eliminate the possibility that the sedative response was connected to any feeding behavior. Therefore, mice were not fasted prior to the experiment, and were instead allowed food and water ad libitum throughout their dark cycle. At the beginning of the light cycle, food was removed and peptides administered. Exendin or GLP-1 peptide, obtained as described above, were each injected ICV into normal wildtype mice at a concentration of 0.5, 1.0, 5.0 or 10.0 μg per 5 μl, and locomotor activity assessed as above.

## Exendin(9-39) amide
rats
  food intake / feeding: doubled food intake
[1]
  locomotor activity (number of line cross events): greatly increased locomotor activity
[2]
  locomotor activity / lethargy: induced lethargy

## Exendin-4 amide [exendin 4]
Normal wildtype mice; 0.5 μg per 5 μl ICV (lowest dose)
  mean number of line crossings: 11.5
Normal wildtype mice; sedative effect in the mammalian central nervous system, ICV
  potency relative to GLP-1 on a weight (μg) basis: at least 20 fold
[1]
  locomotor activity (number of line cross events): clear and marked decreased number of line cross events
[2]
  locomotor activity / lethargy: induced lethargy and reduced movement

## Glucagon-like Peptide 1 (7-36) amide [GLP-1]
rats
  food intake / feeding: inhibits feeding
  locomotor activity: reduction in locomotor activity
Normal wildtype mice; 10 μg per 5 μl ICV (highest dose)
  mean number of line crossings: 24
[1]
  locomotor activity (number of line cross events): exhibited the same tendency
[2]
  locomotor activity / lethargy: did not
